In US9309537B2, “Chimeric rat produced using rat embryonic stem cells in the presence of an ES cell differentiation suppressant” (National Cancer Center, priority 2009, dated 2016):

Test system: rat ES cells
Assay: Culture of established rat ES cells with PAC factor or Y factor alone (colony morphology, alkaline phosphatase)
Format: cell-based
Details: ES cell culture medium on MEF

With C[C@@H](N)[C@H]1CC[C@H](C(=O)Nc2ccncc2)CC1 [Y, Y-27632] the alkaline phosphatase activity was “did not exhibit alkaline phosphatase activity” and the “undifferentiated state and colony morphology of established rat ES cells” value was “unable to maintain the undifferentiation state”.
